From patent publication US6887896B1, “7-[(7-Alkoxy)-chrom-3-en-6-yl]-heptatrienoic acid and 7-[(3-alkoxy)-5,6-dihydronaphthalen-2-yl]-heptatrienoic acid derivatives having serum glucose reducing activity” (Allergan, Inc., priority 2003, dated 2005)
pEC50, pKd, pKi: −log10 of the molar value.

Key:
RARα [1] = target: T1, RARα (Homo sapiens, UniProt P10276); assay: ligand binding assay, RARα; conditions: for pKi: read-out: RAR Bind. Ki α; for pKd: Table 9 (Formula F), read-out: RAR α Kd
T1 sequence (P10276 1-462): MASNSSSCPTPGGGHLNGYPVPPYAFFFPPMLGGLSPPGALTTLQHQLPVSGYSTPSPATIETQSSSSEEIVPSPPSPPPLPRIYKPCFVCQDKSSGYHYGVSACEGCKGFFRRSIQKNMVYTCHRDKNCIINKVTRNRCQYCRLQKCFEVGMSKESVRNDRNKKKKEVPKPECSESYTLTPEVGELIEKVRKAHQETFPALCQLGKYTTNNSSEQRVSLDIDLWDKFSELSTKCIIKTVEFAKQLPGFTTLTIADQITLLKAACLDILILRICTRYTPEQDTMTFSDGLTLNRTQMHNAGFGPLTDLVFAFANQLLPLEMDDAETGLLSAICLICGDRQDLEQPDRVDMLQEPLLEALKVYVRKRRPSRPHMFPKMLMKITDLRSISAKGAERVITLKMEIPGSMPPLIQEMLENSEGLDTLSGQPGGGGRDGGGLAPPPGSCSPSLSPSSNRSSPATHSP
From the text: (§1) Specifically, one such assay is a chimeric receptor transactivation assay which tests for agonist-like activity in the R RAPE and RAR7 receptor subtypes, and which is based on work published by Feigner, P. L. and Holm, M (1989) Focus, 112 is described in detail in U.S. Pat. No. 5,455,265. The specification of U.S. Pat. No. 5,455,265 is hereby expressly incorporated by reference. A holoreceptor transactivation assay and a ligand binding assay which measure the antagonist/agonist like activity of the compounds of the invention, or their ability to bind to the several retinoid receptor subtypes, respectively, are described in published PCT Application No. WO WO93/11755 (particularly on pages 30-33 and 37-41) published on Jun. 24, 1993, the specification of which is also incorporated herein by reference. A detailed experimental procedure for holoreceptor transactivations has been described by Heyman et al. Cell 68, 397-406, (1992); Allegretto et al. J. Biol. Chem. 268, 26625-26633, and Mangelsdorf et al. The Retinoids: Biology, Chemistry and Medicine, pp 319-349, Raven Press Ltd., New York, which are expressly incorporated herein by reference. The results obtained in this assay are expressed in EC50 numbers, as they are also in the chimeric receptor transactivation assay. The results of the ligand binding assay are expressed in Ki numbers. (See Cheng et al. Biochemical Pharmacology Vol. 22 pp 3099-3108, expressly incorporated herein by reference.)
(§2) Generally speaking, in the tables disclosing the results of transactivation and binding assays the numbers in parentheses indicate efficacy as a percentage compared to the standard compound, (2E,4E,1′S,2′S)-3-methyl-5-[2′-methyl-2′-(5,5,8,8-tetramethyl-5,6,7,8-tetrahydro-naphthalen-2-yl)cyclopropyl]-penta-2,4-dienoic acid and the other numbers indicate the measured EC50 and K; in nanomolar concentration.

RARα [2] = target: T2, RARα (Homo sapiens, UniProt P10276); assay: chimeric receptor transactivation assay, RARα; type: cell-based; conditions: for pEC50: chimeric receptor transactivation, read-out: RAR Trans. EC50 α; for Emax: percentage compared to the standard compound, read-out: RAR Trans. efficacy (number in parentheses) α
T2 sequence (P10276 183-417 limits assumed): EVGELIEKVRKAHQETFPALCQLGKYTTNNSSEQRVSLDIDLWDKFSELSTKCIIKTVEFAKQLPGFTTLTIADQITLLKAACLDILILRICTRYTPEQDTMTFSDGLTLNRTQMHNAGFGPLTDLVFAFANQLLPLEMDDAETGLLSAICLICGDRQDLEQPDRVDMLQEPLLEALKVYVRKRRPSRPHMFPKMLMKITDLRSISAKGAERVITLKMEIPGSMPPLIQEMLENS
From the text: as §1
(§3) Efficacy in a transactivation assay is expressed as a percentage of the maximum potency attained by the compound compared to a standard which, in this case, is the compound named (2E,4E,1′S,2′S)-3-methyl-5-[2′-methyl-2′-(5,5,8,8-tetramethyl-5,6,7,8-tetrahydro-naphthalen-2-yl)-cyclopropyl]-penta-2,4-dienoic acid. This standard compound is described in U.S. Pat. No. 6,114,533.
(§4) The specification of this application for patent is organized in several sections in accordance with structural Formulas A through F each of which discloses a group of preferred compounds within the scope of the invention. Tables that disclose the activity of certain exemplary compounds of the invention in the above-described RXR receptor transactivation and binding assays are found in the corresponding sections. […] The transactivation data pertaining to the activation of RXR receptors were obtained in the holoreceptor assay.
as §2

RARβ = target: T3, RARβ (Homo sapiens, UniProt P10826); assay: chimeric receptor transactivation assay, RARβ; type: cell-based; conditions: for pEC50: chimeric receptor transactivation, read-out: RAR Trans. EC50 β; for Emax: percentage compared to the standard compound, read-out: RAR Trans. efficacy (number in parentheses) β
T3 sequence (P10826 183-417 limits assumed): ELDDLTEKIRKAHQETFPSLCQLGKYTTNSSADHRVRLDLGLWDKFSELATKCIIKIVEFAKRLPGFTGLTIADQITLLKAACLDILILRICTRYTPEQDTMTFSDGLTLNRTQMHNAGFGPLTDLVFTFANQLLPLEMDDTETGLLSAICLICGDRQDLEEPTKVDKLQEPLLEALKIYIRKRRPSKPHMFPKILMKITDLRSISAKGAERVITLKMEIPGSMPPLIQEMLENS
From the text: as §1, §3, §4, §2

RXRγ = target: T4, RXRγ (UniProt P28705); assay: ligand binding assay, RXRγ; conditions: for pKd: Table 9 (Formula F), read-out: RXR γ Kd
T4 sequence (P28705 1-463): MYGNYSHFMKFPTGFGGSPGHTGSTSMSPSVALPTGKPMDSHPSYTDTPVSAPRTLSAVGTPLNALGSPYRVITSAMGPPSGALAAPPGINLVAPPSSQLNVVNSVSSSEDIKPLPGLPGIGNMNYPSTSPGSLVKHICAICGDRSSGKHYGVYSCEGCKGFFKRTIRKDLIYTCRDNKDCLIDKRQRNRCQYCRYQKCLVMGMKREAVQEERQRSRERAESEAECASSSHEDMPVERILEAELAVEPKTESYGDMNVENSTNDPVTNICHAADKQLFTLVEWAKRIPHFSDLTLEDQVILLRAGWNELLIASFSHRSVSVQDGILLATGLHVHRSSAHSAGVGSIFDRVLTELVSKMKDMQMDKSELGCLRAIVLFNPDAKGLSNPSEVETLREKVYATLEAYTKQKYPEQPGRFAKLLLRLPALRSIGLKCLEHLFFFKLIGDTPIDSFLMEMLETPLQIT
From the text: as §1, §2

Row | pKi (RARα [1]) | pEC50 (RARα [2]) | Emax (RARα [2]) [%] | pEC50 (RARβ) | Emax (RARβ) [%] | pKi (RXRγ; read-out: RXR Bind Ki γ) | pKd (RARα [1]) | pKd (RXRγ) | Compound
1 | 6.61 | 7.89 | 5 | 7.24 | 37 | – | – | – | COc1cc2c(cc1\C(C)=C/C=C/C(C)=C/C(=O)O)C(C(C)C)=CC(C)(C)O2 [Compound 43, 7-(4-Isopropyl-7-methoxy-2,2-dimethyl-2H-chromen-6-yl)-3-methyl-octa-2E,4E,6Z-trienoic acid]
2 | 8.52 | 6.92 | 6 | < 6.00 | – | – | – | – | CCOc1cc2c(cc1\C(C)=C/C=C/C(C)=C/C(=O)O)C(CC)=CC(C)(C)O2 [Compound 45, 7-(7-Ethoxy-4-ethyl-2,2-dimethyl-2H-chromen-6-yl)-3-methyl-octa-2E,4E,6Z-trienoic acid]
3 | 5.43 | 6.61 | 26 | 6.64 | 17 | – | – | – | CCOc1cc2c(cc1\C(C)=C(F)/C=C/C(C)=C/C(=O)O)C(c1ccccc1)=CC(C)(C)O2 [Compound 127, (2E,4E,6E)-7-(7-Ethoxy-2,2-dimethyl-4-phenyl-2H-chromen-6-yl)-6-fluoro-3-methyl-octa-2,4,6-trienoic acid]
4 | 6.52 | 7.85 | 25 | 7.05 | 22 | – | – | – | CCCOc1cc2c(cc1\C(C)=C(F)/C=C/C(C)=C/C(=O)O)C(c1ccccc1)=CC(C)(C)O2 [Compound 128, (2E,4E,6E)-7-(2,2-Dimethyl-4-phenyl-7-propoxy-2H-chromen-6-yl)-6-fluoro-3-methyl-octa-2,4,6-trienoic acid]
5 | 6.75 | < 5.00 | – | 6.25 | 24 | – | – | – | CC/C(=C(F)/C=C/C(C)=C/C(=O)O)c1cc2c(cc1OC)OC(C)(C)C=C2C [Compound 129, 6-Fluoro-7-(7-methoxy-2,2,4-trimethyl-2H-chromen-6-yl)-3-methyl-nona-2E,4E,6E-trienoic acid]
6 | 6.88 | 6.66 | 8 | 7.19 | 31 | – | – | – | CC/C(=C(F)/C=C/C(C)=C/C(=O)O)c1cc2c(cc1OC)OC(C)(C)C=C2C(C)C [Compound 130, 6-Fluoro-7-(4-isopropyl-7-methoxy-2,2-dimethyl-2H-chromen-6-yl)-3-methyl-nona-2E,4E,6E-trienoic acid]
7 | 7.33 | < 6.00 | – | 7.31 | 13 | – | – | – | CC/C(=C(F)/C=C/C(C)=C/C(=O)O)c1cc2c(c(Cl)c1OC)OC(C)(C)C=C2C(C)C [Compound 171, 7-(8-Chloro-4-isopropyl-7-methoxy-2,2-dimethyl-2H-chromen-6-yl)-6-fluoro-3-methyl-nona-2E,4E,6E-trienoic acid]
8 | 6.74 | 7.54 | 10 | 7.37 | 68 | – | – | – | CCOc1cc2c(cc1\C(CC)=C(F)/C=C/C(C)=C/C(=O)O)C(CC)=CCC2(C)C [Compound A-78, (2E,4E,6E)-7-(3-Ethoxy-8-ethyl-5,5-dimethyl-5,6-dihydro-naphthalen-2-yl)-6-fluoro-3-methyl-nona-2,4,6-trienoic acid]
9 | 6.21 | – | – | 6.08 | 62 | 7.06 | – | – | CCOc1cc2c(cc1\C(C)=C(F)/C=C/C(C)=C/C(=O)O)C(C(C)C)=CCC2(C)C [Compound A-79, (2E,4E,6E)-6-Fluoro-3-(4,4-dimethylethoxy-1-isopropyl-3,4-dihydronaphthalen-7-yl)-3-methyl-2.4,6-octa-trienoic acid]
10 | 6.41 | – | – | 6.77 | 9 | – | – | – | CCOc1cc2c(cc1\C(C)=C(F)/C=C/C(C)=C/C(=O)O)C(C(C)(C)C)=CCC2(C)C [Compound A-82, (2E,4E,6E)-6-Fluoro-3-(4,4-dimethyl-6-ethoxy-1-tert-butyl-3,4 dihydronaphthalen-7-yl)-3-methyl-2,4,6-octa-trienoic acid]
11 | 6.40 | – | – | 7.51 | 12 | – | – | – | CCOc1cc2c(cc1\C(CC)=C(F)/C=C/C(C)=C/C(=O)O)C(C(C)(C)C)=CCC2(C)C [Compound A-83, (2E,4E,6E)-7-(8-tert-Butyl-3-ethoxy-5,5-dimethyl-5,6-dihydronaphthalen-2-yl)-6-fluoro-3-methyl-nona-2,4,6-trienoic acid]
12 | 5.96 | – | – | 7.25 | 8 | – | – | – | CCCOc1cc2c(cc1\C(C)=C(F)/C=C/C(C)=C/C(=O)O)C(C(C)(C)C)=CCC2(C)C [Compound A-84, (2E,4E,6E)-6-Fluoro-3-(4,$dimethyl-6-n-propoxy-1-tert-butyl-3,4-dihydronaphthalen-7-yl)-3-methyl-2,4,6-octatrienoic acid]
13 | – | – | – | 8.46 | 8 | – | 7.92 | 7.54 | CCOc1c(\C(CC)=C(F)/C=C/C(C)=C/C(=O)O)cc2c(c1Br)C(C)(C)CC=C2C(C)C [Compound A-170, (2E,4E,6E)-7-(4-Bromo-3-ethoxy-8-isopropyl-5,5-dimethyl-5,6-dihydro-naphthalen-2-yl)-6-fluoro-3-methyl-nona-2,4,6-trienoic acid]
14 | – | – | – | – | – | – | 6.85 | 6.66 | CC(/C=C/C(F)=C(/C)c1cc2c(c(Br)c1OC(C)C)C(C)(C)CC=C2C(C)C)=C\C(=O)O [Compound A-172, (2E,4E,6E)-7-(4-Bromo-3-isopropoxy-8-isopropyl-5,5-dimethyl-5,6-dihydro-naphthalen-2-yl)-6-fluoro-3-methyl-octa-2,4,6-trienoic acid]
15 | – | – | – | – | – | – | 6.00 | 7.47 | CCOc1c(\C(C)=C(F)/C=C/C(C)=C/C(=O)O)cc2c(c1Br)C(C)(C)CC=C2C(C)(C)C [Compound A-174, (2E,4E,6E)-7-(4-Bromo-8-tert-butyl-3-ethoxy-5,5-dimethyl-5,6-dihydro-naphthalen-2-yl)-6-fluoro-3-methyl-octa-2,4,6-trienoic acid]
